Patent US10617664B2, “Brain derived PPARα ligands” (Rush University Medical Center, priority 2015, dated 2020)

Key:
Type in all cases: cell-based, mouse
NR2A, GluR1 and CREB [1] = test: Immunoblot and immunofluorescence of synaptic molecules in WT hippocampal neurons; settings: 5 μM HEX, 5 μM OCT, 50 μM HMB
Procedure: (§1) (FIG. 17A) Immunoblot analyses followed by densitometric analyses of NR2A (FIG. 17B), GluR1 (FIG. 17C) and CREB (FIG. 17D) were performed in Ppara-null and WT hippocampal neurons treated with 5 μM HEX, 5 μM OCT and 50 μM HMB. Data are mean±SD of three different experiments. ^ap<0.05 versus WT-control. Immunocytochemical analyses of NR2A (FIG. 17E) and GluR1 (FIG. 17F) in WT and Ppara-null hippocampal neurons treated with HEX, OCT and HMB. Hippocampal neurons were transduced with lenti-GFP for 48 h followed by treatment with different ligands. Immunoblot analyses followed by relative densitometric analyses of CREB in Ppara-null hippocampal neurons transduced with lentivirions containing different Ppara constructs followed by treatment with HEX (FIG. 17G-H), OCT (FIG. 17I-J) and HMB (FIG. 17K-L). Bands were scanned and presented as relative to control (FIG. 17H, HEX; FIG. 17J, OCT; FIG. 17L, HMB). Data are mean±SD of three different experiments. ^ap<0.05 vs FLPpara control.
(§2) Isolation of Mouse Hippocampal Neurons: Hippocampal neurons were isolated from fetuses (E18) of pregnant female Ppara-null and strain-matched WT littermate mice as described by us^6,13,35-36 with some modifications. Briefly, dissection and isolation procedures were performed in an ice-cold, sucrose buffer solution (sucrose 0.32 M, Tris 0.025 M; pH 7.4)^37. The skin and the skull were carefully removed from the brain by scissors followed by peeling off the meninges by a pair of fine tweezers. Next, a fine incision was made in the middle line around the circle of Willis and medial temporal lobe was opened up. Hippocampus was isolated as a thin slice of tissue located near the cortical edge of medial temporal lobe. Hippocampal tissues isolated from all fetal pups (n>10) were combined together and homogenized with 1 ml of trypsin for 5 minutes at 37° C. followed by neutralization of trypsin. The single cell suspension of hippocampal tissue was plated in the poly-D-lysine pre-coated 75 mm flask. Five min after plating, the supernatants were carefully removed and replaced with complete neurobasal media. The next day, 10 μM AraC was added to remove glial contamination in the neuronal culture. The pure cultures of hippocampal neurons were allowed to differentiate fully for 9-10 days before treatment^35,36,38.
(§3) For whole-cell and tissue lysates, samples were homogenized in RIPA buffer containing protease and phosphatase inhibitors (Sigma), passed 10 times through a 26-gauge needle, rotated end over end for 30 min at 4° C., and centrifuged for 10 min at 18,000×g. The supernatant was aliquoted and stored at −80° C. until use. Protein concentrations were determined using a NanoDrop 2000 (Thermo Fisher), and 15-30 μg sample was heat-denatured and resolved on 10% or 12% polyacrylamide-SDS gels, transferred to 0.45 μm nitrocellulose membranes under semidry conditions (15V for 12 min). Membranes were blocked for 1 h with blocking buffer (Li-Cor), incubated with primary antibodies overnight at 4° C. under shaking conditions, washed, incubated with IR-dye-labeled secondary antibodies (1:17,000; Li-Cor) for 45 min at room temperature, washed, and visualized with the Odyssey Infrared Imaging System (Li-Cor). Blots were converted to grayscale and then binary, analyzed using Fiji, and normalized to appropriate loading controls.

[2] = system: NMDA-driven calcium influx; test: NMDA-driven calcium influx in transduced Ppara-null hippocampal neurons
Procedure: Ppara-null hippocampal neurons were transduced with lentivirions containing GFP (vector), FL-Ppara, and Y464D-Ppara for 48 h followed by treatment with vehicle (DMSO) (FIG. 11A), OCT (FIG. 11B), HEX (FIG. 11C), HMB (FIG. 11D), and WY14643 (FIG. 11E) for 24 h. Then neurons were stained for phalloidin to measure spine density. FIG. 11F) A representative picture of dendrite with spines (Cyan color) used for counting area of spine heads. Area of spine heads (FIG. 11G) and number of spines (FIG. 11H) in 10 μm of dendrites. Results are mean±SEM of 5 neurons per group. ^ap<0.05 vs vector only; ^bp<0.05 vs FL-Ppara. AMPA-driven calcium influx was measured in OCT (red), HEX (green) and HMB (purple)-treated Ppara-null hippocampal neurons transduced with lentivirions containing FL-Ppara (FIG. 11I), Y314D-Ppara (FIG. 11J), Y464D-Ppara (FIG. 11K), and Y314D/Y464D-Ppara (FIG. 11L). All neurons were treated with 50 μM of NMDA receptor antagonist N20C to inhibit passive calcium flow through NMDA receptor. (FIG. 11M-P) Similarly NMDA-driven calcium influx was measured in the lentivius-infected Ppara-null hippocampal neurons in the presence of different endogenous ligands. In these cases, Naspm-HCl was treated to stop the passive flow of calcium currents through AMPA receptor. Results are mean of three independent experiments.

[3] = system: PPRE-driven luciferase activity; test: PPRE-luciferase assay in Ppara-null astrocytes transduced with Ppara constructs; settings: Ppara-null astrocytes (empty vector)
Procedure: Astrocytes plated at 60-70% confluence were transfected with tk-PPREx3-Luc, a PPRE-dependent luciferase reporter construct. After 24 h of transfection, cells were treated with different concentrations of HEX (FIG. 10A), OCT (FIG. 10B) and HMB (FIG. 10C) for 4 h followed by monitoring luciferase activity. Under similar experimental condition, MTT was performed to understand the effect of these ligands on cell viability (FIG. 10D, HEX; FIG. 10E, OCT; FIG. 10F, HMB). Results are mean±SD of three independent experiments. ^ap<0.001 vs. control. Ppara-null astrocytes were transduced with lentivirions containing empty vector (FIG. 10G), FL-Ppara (FIG. 10H), Y314D-Ppara (FIG. 10I), Y464D-Ppara (FIG. 10J), and Y314D/Y464D-Ppara (FIG. 10K) for 48 h followed by transfection with tk-PPREx3-Luc. After 24 h of transfection, cells were treated with different doses of HEX, OCT and HMB for 4 h followed by monitoring luciferase activity. PPRE luciferase activity was assayed in Ppara-null astrocytes transduced with lentivirions containing empty vector (FIG. 10L), FL-Ppara (FIG. 10M), Y314D-Ppara (FIG. 10N), Y464D-Ppara (FIG. 10O), and Y314D/Y464D-Ppara (FIG. 10P) after treatment with different doses of WY14643, fenofibrate, and clofibrate. PPRE luciferase activity was assayed in primary hippocampal neurons transduced with lentivirions containing empty vector (FIG. 10Q), FL-Ppara (FIG. 10R), Y314D-Ppara (FIG. 10S), Y464D-Ppara (FIG. 10T), and Y314D/Y464D-Ppara (FIG. 10U) after treatment with different doses of HEX, OCT and HMB. Results are mean±SD of three independent experiments. ^ap<0.001 vs. control.

NR2A, GluR1 and CREB [4] = test: Immunoblot and immunofluorescence of synaptic molecules in Ppara-null hippocampal neurons; settings: 5 μM HEX, 5 μM OCT, 50 μM HMB
Procedure: as §1, §2, §3

| PPRE-driven luciferase activity [3] | Compound | expression of CREB (NR2A, GluR1 and CREB [1]) | expression of GluR1 (NR2A, GluR1 and CREB [1]) | expression of NR2A (NR2A, GluR1 and CREB [1]) | NMDA-mediated calcium influx ([2]; lenti-FL-Ppara) | NMDA-mediated calcium influx ([2]; lenti-Y314D-Ppara) | NMDA-mediated calcium influx ([2]; lenti-Y314D/Y464D-Ppara) | NMDA-mediated calcium influx ([2]; lenti-Y464D-Ppara) | expression of CREB (NR2A, GluR1 and CREB [4]) | expression of NR2A (NR2A, GluR1 and CREB [4]) |
| --- | --- | --- | --- | --- | --- | --- | --- | --- | --- | --- |
| remained unable to induce | CCCCCCCCCCCCCCCC(N)=O [HEX, hexadecanamide] | upregulated | upregulated | upregulated | stimulated | partially restore | remained unable to increase | remained unable to increase | not | not |
| remained unable to induce | CCOC(=O)C(C)(C)C(C)O (stereo not drawn) [HMB] | upregulated | upregulated | upregulated | stimulated | partially restore | remained unable to increase | remained unable to increase | not | not |
| remained unable to induce | CCCCCCCCC=CCCCCCCCC(N)=O [OCT, 9-octadecenamide] | upregulated | upregulated | upregulated | stimulated | partially restore | remained unable to increase | remained unable to increase | not | not |
